{"source": "patent US20190343425A1", "about": "“TREATMENT OF A DISEASE OF THE GASTROINTESTINAL TRACT WITH A TNF INHIBITOR” (Progenity, Inc., priority 2016, published 2019)", "experiment": "Tacrolimus tissue pharmacokinetics, oral versus intra-cecal ingestible device delivery", "assay_type": "in vivo, Yorkshire-Cross farm swine", "details": "swine; intra-cecally (ingestible device) vs orally administered; FIG. 76", "description": "No further randomization procedure was employed.\nAnimals in Group 1 received an ingestible device containing 0.8 mL of vehicle solution (80% alcohol, 20% HCO-60). Animals in Group 2 received orally […] liquid formulation of tacrolimus at 4 mg/0.8 mL per animal (Prograf: 5 mg/mL). Animals in Group 3 received intra-cecally an ingestible device containing tacrolimus at 1 mg in 0.8 mL per ingestible device. Animals in Group 4 received intra-cecally an ingestible device containing tacrolimus at 2 mg in 0.8 mL per ingestible device. Animals in Group 5 received intra-cecally an ingestible device containing tacrolimus at 4 mg in 0.8 mL per ingestible device. To control for potential confounding effects of the surgery, all groups fast on Day −11 at least 24 hr before being subjected to anesthesia followed by surgical placements of a cecal port by a veterinary surgeon at Day −10. […]\nFor tissue necropsy, small intestine fluid and cecal fluid were collected separately from all the animals into two separate square plastic bottles, and stored at −20° C. The length and diameter of the cecum and the colon was measured from one animal in each group and recorded for reference. […] All samples were weighed, and the tissue sample weights were recorded. […] Around 3 grams of the total punched sample were collected into a pre-weighed 15-mL conical tube, and the tissue weight was recorded. […]", "data": [{"molecule": "C=CC[C@@H]1/C=C(\\C)C[C@H](C)C[C@H](OC)[C@H]2O[C@@](O)(C(=O)C(=O)N3CCCC[C@H]3C(=O)O[C@H](/C(C)=C/[C@@H]3CC[C@@H](O)[C@H](OC)C3)[C@H](C)[C@@H](O)CC1=O)[C@H](C)C[C@@H]2OC", "note": "[tacrolimus]", "values": [{"measurement": "mean concentration of tacrolimus in the cecum tissue and the proximate colon tissue", "result": "higher"}]}]}
